Data on ten compounds can be found in PubChem BioAssay AID328 (DTP/NCI, 2004).

The subject of the assay is BDF1 mice, P388 leukemia ip, median survival T/C. The experiment in a line: NCI In Vivo Anticancer Drug Screen. Data for tumor model P388 Leukemia (intraperitoneal) in B6D2F1 (BDF1) mice. Particulars: endpoint: median survival time, higher = longer survival. A digest of the protocol:
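Transplantable tumour in mice; compound vs vehicle dosing; survival scored; ratio of treated to control reported.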

Where [1] appears, read: dose: 15.0 mg/kg/injection, schedule: Q01DX009 (ip), vehicle: saline with Tween-80.
The mark [2] stands for this setting: dose: 50.0 mg/kg/injection, schedule: Q01DX009 (ip), vehicle: saline with Tween-80.
The mark [3] stands for this setting: dose: 100.0 mg/kg/injection, schedule: Q04DX003 (ip), vehicle: saline.
Where [4] appears, read: dose: 200.0 mg/kg/injection, schedule: Q04DX003 (ip), vehicle: saline.
The mark [5] stands for this setting: dose: 25.0 mg/kg/injection, schedule: Q01DX009 (ip), vehicle: saline with Tween-80.
[6] abbreviates: dose: 200.0 mg/kg/injection, schedule: Q04DX003 (ip), vehicle: saline with Tween-80.

Values joined by “and” are separate entries in the source; they are usually repeats but may differ in a detail not shown here. Equal values may be shown once. Toxic doses and inconclusive results are not listed.

With `O=C1NC(=O)C([N+](=O)[O-])=C(O)C1=O`, the T/C by setting is: (dose: 1.0 mg/kg/injection, schedule: Q01DX009 (ip), vehicle: saline with Tween-80) 110 % of control; (dose: 4.0 mg/kg/injection, schedule: Q01DX009 (ip), vehicle: saline with Tween-80) 105 % of control; (dose: 8.0 mg/kg/injection, schedule: Q01DX009 (ip), vehicle: saline with Tween-80) 100 % of control; (dose: 9.0 mg/kg/injection, schedule: Q01DX009 (ip), vehicle: saline with Tween-80) 150 % of control; under setting [1], 95 % of control; (dose: 18.0 mg/kg/injection, schedule: Q01DX009 (ip), vehicle: saline with Tween-80) 110 % of control. Moreover, the T/C reads like this: (dose: 25.0 mg/kg/injection, schedule: Q04DX003 (ip), vehicle: other) 104 % of control; (dose: 35.0 mg/kg/injection, schedule: Q01DX009 (ip), vehicle: saline with Tween-80) 100 % of control and 120 % of control; (dose: 35.0 mg/kg/injection, schedule: Q04DX003 (ip), vehicle: other) 104 % of control; under setting [2], 90 % of control and 95 % of control; (dose: 50.0 mg/kg/injection, schedule: Q04DX003 (ip), vehicle: other) 104 % of control; (dose: 50.0 mg/kg/injection, schedule: Q04DX003 (ip), vehicle: saline) 118 % of control. For the same compound, the T/C is 105 % of control (dose: 75.0 mg/kg/injection, schedule: Q01DX009 (ip), vehicle: saline with Tween-80); 100 % of control (dose: 75.0 mg/kg/injection, schedule: Q04DX003 (ip), vehicle: other); 109 % of control under setting [3]; 95 % of control (dose: 150.0 mg/kg/injection, schedule: Q01DX009 (ip), vehicle: saline with Tween-80); 104 % of control and 122 % of control under setting [4]; 90 % of control (dose: 300.0 mg/kg/injection, schedule: Q01DX009 (ip), vehicle: saline with Tween-80).

Turning to `NC(=O)c1c(Br)n(C2OC(CO)C(O)C2O)c2ncnc(N)c12` (stereo not drawn), the T/C (dose: 50.0 mg/kg/injection, schedule: Q01DX009 (ip), vehicle: saline) was 95 % of control.

In the case of `CCCCCC(C(C)=O)(C1=NC(C)(C)CC(C)O1)c1ccccc1` (stereo not drawn), the T/C is 110 % of control under setting [3] and 95 % of control under setting [4].

Regarding `O=C(NC(Cc1ccccc1)C(=O)CCl)OCc1ccccc1` (stereo not drawn), the T/C runs as follows: (dose: 4.4 mg/kg/injection, schedule: Q01DX009 (ip), vehicle: saline with Tween-80) 112 % of control; (dose: 6.6 mg/kg/injection, schedule: Q01DX009 (ip), vehicle: saline with Tween-80) 120 % of control; under setting [1], 112 % of control; under setting [5], 105 % of control and 113 % of control; (dose: 37.5 mg/kg/injection, schedule: Q01DX009 (ip), vehicle: saline with Tween-80) 86 % of control.

As for `CC(=O)Nc1ccc2c(Nc3ccc(NS(C)(=O)=O)cc3)c3ccccc3nc2c1`, the T/C by setting is: (dose: 0.73 mg/kg/injection, schedule: Q01DX009 (ip), vehicle: saline) 254 % of control; (dose: 0.88 mg/kg/injection, schedule: Q04DX003 (ip), vehicle: saline) 163 % of control; (dose: 1.1 mg/kg/injection, schedule: Q01DX009 (ip), vehicle: saline) 260 % of control; (dose: 1.32 mg/kg/injection, schedule: Q04DX003 (ip), vehicle: saline) 195 % of control; (dose: 1.65 mg/kg/injection, schedule: Q01DX009 (ip), vehicle: saline) 260 % of control; (dose: 2.0 mg/kg/injection, schedule: Q04DX003 (ip), vehicle: saline) 200 % of control. Moreover, the T/C (dose: 2.5 mg/kg/injection, schedule: Q01DX009 (ip), vehicle: saline) is 252 % of control and 262 % of control; the T/C (dose: 3.0 mg/kg/injection, schedule: Q04DX003 (ip), vehicle: saline) was 195 % of control; the T/C (dose: 5.0 mg/kg/injection, schedule: Q01DX009 (ip), vehicle: saline) is 92 % of control; the T/C (dose: 5.56 mg/kg/injection, schedule: Q04DX003 (ip), vehicle: saline) was 250 % of control; the T/C (dose: 5.6 mg/kg/injection, schedule: Q04DX003 (ip), vehicle: saline) was 236 % of control; the T/C (dose: 8.3 mg/kg/injection, schedule: Q04DX003 (ip), vehicle: saline) was 281 % of control. Besides, the T/C is 250 % of control (dose: 8.33 mg/kg/injection, schedule: Q04DX003 (ip), vehicle: saline); 250 % of control and 272 % of control and 281 % of control (dose: 12.5 mg/kg/injection, schedule: Q04DX003 (ip), vehicle: saline); 250 % of control and 277 % of control (dose: 18.7 mg/kg/injection, schedule: Q04DX003 (ip), vehicle: saline); 122 % of control (dose: 25.0 mg/kg/injection, schedule: Q04DX003 (ip), vehicle: saline); 104 % of control (dose: 18.0 micrograms/kg/injection, schedule: Q04DX003 (ip), vehicle: saline); 109 % of control (dose: 27.0 micrograms/kg/injection, schedule: Q04DX003 (ip), vehicle: saline). In addition, the T/C (dose: 40.0 micrograms/kg/injection, schedule: Q04DX003 (ip), vehicle: saline) was 113 % of control.

On to `CCOC(=O)C(=CN(C(C)C)C(C)C)C(=O)OCC`, for which the T/C (dose: 50.0 mg/kg/injection, schedule: Q04DX003 (ip), vehicle: saline with Tween-80) is 109 % of control; the T/C (dose: 100.0 mg/kg/injection, schedule: Q04DX003 (ip), vehicle: saline with Tween-80) was 104 % of control; the T/C under setting [6] was 109 % of control.

As to `COC(=O)C(NC(C)=O)C(=O)OC`, the T/C (dose: 100.0 mg/kg/injection, schedule: Q01DX009 (ip), vehicle: Klucel (hydroxypropylcellulose) (HPC)) was 104 % of control; the T/C (dose: 200.0 mg/kg/injection, schedule: Q01DX009 (ip), vehicle: Klucel (hydroxypropylcellulose) (HPC)) was 92 % of control; the T/C (dose: 400.0 mg/kg/injection, schedule: Q01DX009 (ip), vehicle: Klucel (hydroxypropylcellulose) (HPC)) was 88 % of control.

Regarding `C[n+]1c2ccccc2cc2ccccc21`, under setting [5], the T/C is 118 % of control.

Turning to `COc1cc([C@@H]2c3cc4c(cc3[C@H](OC(C)=O)[C@H]3COC(=O)[C@@H]23)OCO4)cc(OC)c1OC`, the T/C by setting is: (dose: 25.0 mg/kg/injection, schedule: Q01DX010 (ip), vehicle: carboxymethylcellulose (CMC)) 123 % of control; under setting [2], 172 % of control; (dose: 50.0 mg/kg/injection, schedule: Q01DX010 (ip), vehicle: carboxymethylcellulose (CMC)) 95 % of control; (dose: 50.0 mg/kg/injection, schedule: Q04DX003 (ip), vehicle: saline sonified) 100 % of control; (dose: 66.0 mg/kg/injection, schedule: Q04DX003 (ip), vehicle: saline sonified) 88 % of control; (dose: 88.0 mg/kg/injection, schedule: Q04DX003 (ip), vehicle: saline with Tween-80) 113 % of control. Besides, the T/C (dose: 100.0 mg/kg/injection, schedule: Q04DX003 (ip), vehicle: saline sonified) was 100 % of control; the T/C (dose: 132.0 mg/kg/injection, schedule: Q04DX003 (ip), vehicle: saline with Tween-80) is 150 % of control; the T/C (dose: 150.0 mg/kg/injection, schedule: Q04DX003 (ip), vehicle: saline sonified) is 100 % of control; the T/C (dose: 200.0 mg/kg/injection, schedule: Q04DX003 (ip), vehicle: saline sonified) is 170 % of control; the T/C under setting [6] was 160 % of control.

`O=C1OC2(CCCCC2)OC(=O)C1=C/C=C/c1ccc([N+](=O)[O-])o1`: the T/C runs as follows: (dose: 3.13 mg/kg/injection, schedule: Q01DX009 (ip), vehicle: saline with Tween-80) 100 % of control; (dose: 6.25 mg/kg/injection, schedule: Q01DX009 (ip), vehicle: saline with Tween-80) 98 % of control; (dose: 12.5 mg/kg/injection, schedule: Q01DX009 (ip), vehicle: saline with Tween-80) 91 % of control and 121 % of control; under setting [5], 97 % of control and 99 % of control; under setting [2], 112 % of control.
